Results from PubChem BioAssay AID435019 (Southern Research Specialized Biocontainment Screening …, 2010).

Tested on: mammalian cell viability, cytotoxicity counter-screen
Assay: mammalian cell cytotoxicity, dose response, cytotoxicity control for M. tuberculosis inhibitor project (AID 435019)

SMILES | CC50
CN(C)c1ccnc2c[cH-]cc12.[Fe].c1ccc(-[c-]2[c-](-c3ccccc3)[c-](-c3ccccc3)[c-](-c3ccccc3)[c-]2-c2ccccc2)cc1 (configuration not stated) | 11.8 µM
C[CH2][Hg][S]c1ccccc1C(=O)O | 3.56 µM
